Data: paper PMC10635324, “A Multi-Site Phase I Trial of Veliparib with Standard Radiation and Temozolomide in Patients with Newly Diagnosed Glioblastoma Multiforme (GBM)” (Research Square, 2023)
Values joined by “and” are separate entries in the source; they are usually repeats but may differ in a detail not shown here. Equal entries are not always repeated. Where two headings read alike, the source gives them in different places.

What was measured:
[1] = Plasma pharmacokinetics of veliparib, LC-MS/MS, noncompartmental analysis; format: in vivo, patients; details: for Cmax: human, plasma, oral, 10 mg, read-out: Cmax, maximum drug concentration in plasma
Procedure: Patients received a single dose of veliparib one day prior to starting combination therapy with TMZ or RT/TMZ for PK testing after the first single dose as described below. Patients without disease progression, as evaluated by MRI 10-weeks after the initiation of veliparib therapy, received up to four maintenance cycles of the same dose of veliparib in the initial safety cohort or six cycles in phase I veliparib/RT/TMZ cohort. Veliparib was to be given BID for 7 days and TMZ 150–200 mg/m^2 QD for 5 days, repeated every 28 days, with an imaging evaluation after completing every second maintenance cycle.
Plasma samples were collected to define plasma concentration-time profiles. Samples were collected shortly before dosing and at 0.25, 0.5, 1, 2, 3, 4, 6, 8, and 24 hours after the first dose of six weeks of TMZ and again after achieving steady-state conditions on any day of week 3 of the six weeks (omitting the 24 hour specimen). Samples were analyzed by liquid chromatography-mass spectrometry (LC-MS)/mass spectrometry (MS), Agilent 410B Triple Quadrupole LC/MS system (Agilent Technologies, Inc., Santa Clara, CA).
The plasma concentration-time data for veliparib was analyzed by noncompartmental methods using model 200 for extravascular input in WinNonlin Professional version 5.0.1. Samples with concentrations below the LLQ of the assay were excluded. The maximum concentration of the drug achieved in plasma (Cmax) and the time that it occurred (tmax) were based upon the observed values following a given dose. Area under the plasma concentration-time curves for 8 h (AUC8) and 24 h (AUC24) after dosing were estimated using the log- linear trapezoidal algorithm. Routines provided in the Data Analysis ToolPak of Microsoft Excel 2003 (11.8231.8221) SP3, Professional Edition (Redmond, WA), were used for the descriptive statistics and statistical tests. Arithmetic averages and standard deviations were calculated for the time of the maximum drug concentration in plasma (tmax). Geometric means were calculated for all other pharmacokinetic variables. The jackknife technique was used to estimate the standard deviation of geometric means.

[2] = test system: patients with newly diagnosed glioblastoma; test: Phase I dose-limiting toxicities / adverse events (CTCAE v.3.0); format: in vivo
Procedure: This was an open-label, multi-center, phase 1 study. The maximum tolerated dose (MTD) was a dose producing a dose-limiting-toxicity (DLT) rate at 33% or less. A modified 3 + 3 design with 6 patients per dose cohort was used due to 10 weeks long safety evaluation period that potentially 40–50% patient might drop-out study for early disease progression.
The initial safety group of up to 6 patients included patients who had recently completed standard concurrent RT/TMZ) were then treated with one cycle of low-dose veliparib 10 mg BID along with 6 weeks of once-a day (QD) temozolomide 75 mg/m2/d (no RT). Once this one cycle was complete, patients were permitted to transition to monthly cycles of standard adjuvant temozolomide 150–200 mg/m2/d for five consecutive days each month.
If safety was confirmed, then the phase I component including radiotherapy would proceed enrolling cohorts of 6 patients to pre-specified escalating dose levels of daily veliparib, ranging from 10 mg BID to 100 mg twice-daily BID daily along with TMZ (75 mg/m^2/d) for 6 weeks in conjunction with standard radiation 60 Gy in 30 fractions.The protocol specified that if excessive toxicity occurred, de-escalation could be introduced by joint decision of study PI, sponsor, and ABTC leadership to a choice of veliparib 10 mg daily, 10 mg every other day or 10 mg BID 1 week on/1 week off for the 6-week period.
DLTs were events considered possible or probably related to veliparib alone, veliparibib/TMZ or Veliparib/RT per CTCAE v.3.0 including: ≥ grade 3 nonhematological toxicities not resolving with anticonvulsants or steroid treatment excluding grade 3 nausea and dermatitis. Hematologic toxicity was considered dose limiting if there was 1) ANC ≤ 500/mm^3; 2) Platelets ≤ 25,000/mm^3; 3) Grade 3 toxicity that prevents administration of > 75% of the planned temozolomide doses for the first cycle; 4) interruption of treatment for > 14 days. All subjects were monitored for safety throughout the trial.

[3] = test system: patients with newly diagnosed glioblastoma; test: Survival from the date of study enrollment; format: in vivo; details: all patients on study
Source text: All subjects were followed until death, and survival from the date of study enrollment was reported to evaluate for any unexpected adverse results.

[4] = design: method as in PMID 17473206; details: rodent model; cited from earlier work
[5] = design: method as in PMID 17473206; details: preclinical, oral; cited from earlier work
[6] = design: method as in PMID 19364967; details: phase 0 clinical trial, oral; cited from earlier work
[7] = test system: patients with MGMT methylation; design: method as in doi:10.1200/JCO.2022.40.16_suppl.2001; details: cited from earlier work
brain metastasis = test system: brain metastasis; design: method as in PMID 25682091; details: Veliparib 40 mg BID or 200 mg BID added to whole brain radiotherapy; cited from earlier work
[8] = design: method as in PMID 28243955, PMID 28497258, PMID 30456480, PMID 27503200, PMID 21795476; details: cited from earlier work
[9] = design: method as in PMID 26202595; details: cited from earlier work
[10] = Single dose 10 mg Veliparib, n=16
[11] = Steady-state 10 mg BID Veliparib, week 3, n=18

C[C@]1(c2nc3c(C(N)=O)cccc3[nH]2)CCCN1 [Veliparib]
Accumulation for BID dosing ([1]; BID dosing): 56%
CL/F, apparent oral clearance ([1]; Single (initial) dose 10 mg Veliparib, n=16): 27.0 ± 9.0 L/h and 27.0 ± 9.2 L/h
t1/2,z apparent terminal phase half-life [1, 10]: 5.8 ± 0.9 h
Cmin, minimum drug concentration in plasma ([1]; Single dose 10 mg Veliparib, n=16, geometric mean ± SD): 2.5 ± 1.3 ng/mL
CL/F, apparent oral clearance ([1]; Steady-state 10 mg BID Veliparib, n=18): 23.5 ± 10.4 L/h
Cmin, minimum drug concentration in plasma [1, 11]: 18.4 ± 10.4 ng/mL
Accumulation ([1]; Steady-state 10 mg BID dosing): 56%
Cmax [1, 10]: 50.3 ± 19 ng/mL
Cmax [1, 11]: 66.1 ± 28.7 ng/mL
Peak and trough concentrations throughout six weeks of daily dosing ([1]; veliparib 20 mg BID concurrently with daily temozolomide (so in the source)): remains stable
Patients with platelets <25,000/mm^3 ([2]; 12 patients, veliparib 10 mg BID + TMZ + RT): 3 patients
Anemia ([2]; human, in vivo, 6 weeks): 1 (4.2) n (%)
Any adverse event (dose limiting, possibly related) ([2]; human, in vivo, 6 weeks): 11 (45.8) n (%)
Febrile neutropenia ([2]; human, in vivo, 6 weeks): 1 (4.2) n (%)
Neutropenia ([2]; human, in vivo, 6 weeks): 2 (8.3) n (%)
Pancytopenia ([2]; human, in vivo, 6 weeks): 1 (4.2) n (%)
Subjects with ≥ 1 AE (Blood and Lymphatic Systemic Disorders) ([2]; human, in vivo, 6 weeks): 9 (37.5) n (%)
Thrombocytopenia ([2]; human, in vivo, 6 weeks): 7 (29.2) n (%)
Number of dose limiting toxicities (DLT) ([2]; in vivo): one
Tolerable dose (maximum tolerated dose) ([2]; with TMZ and six weeks of standard radiation, even with 50% dose reductions): a tolerable dose of veliparib could not be found
Survival at 2 years [3]: 25%
Median survival ([3]; 95%CI: 8–16 months): 13 months
Crossing of the blood brain barrier [4]: cross the blood brain barrier
Bioavailability [5]: good bioavailability
Bioavailability [6]: good bioavailability
Hematologic toxicity (neutropenia, thrombocytopenia, and anemia) ([7]; veliparib 40 mg BID each day of standard adjuvant TMZ (days 1–5) after concurrent RT/TMZ): increased but acceptable hematologic toxicity
Survival benefit ([7]; veliparib 40 mg BID each day of standard adjuvant TMZ (days 1–5)): without survival benefit
Adverse events compared with placebo (brain metastasis): no increase in adverse events
Effect of TMZ co-administration on the clearance of veliparib [8]: no effect
Effect of veliparib coadministration on TMZ plasma exposures [9]: does not affect
